Experiments:
Human JNK2α2 = Human JNK2α2 (Homo sapiens (Human), UniProt P45984); assay: JNK assay in vitro, phosphorylation of GST-ATF2 (19-96) with [γ-33P] ATP; type: biochemical; settings: Human JNK2α2, 1 nM enzyme, 1 μM ATF2, 8 μM ATP; read-out: JNK2 − IC50
Description: (§1) JNK activity was measured by phosphorylation of GST-ATF2 (19-96) with [γ-^33P] ATP. […] Human JNK2α2 assay contains 1 nM enzyme, 1 μM ATF2, 8 μM ATP with 1 μCi [γ-^33P] ATP. Human JNK1α1 assay contains 2 nM enzyme, 1 μM ATF2, 6 μM ATP with 1 μCi [γ-^33P] ATP. Human JNK3 (Upstate Biotech #14-501M) assay contains 2 nM enzyme, 1 μM ATF2, 4 μM ATP with 1 μCi [γ-^33P] ATP. The enzyme assay was carried out in the presence or absence of several compound concentrations. JNK and compound were pre-incubated for 10 min, followed by initiation of the enzymatic reaction by adding ATP and the substrate. The reaction mixture was incubated at 30° C. for 30 min. At the end of incubation, the reaction was terminated by transferring 25 μl of the reaction mixture to 150 μl of 10% glutathione Sepharose® slurry (Amersham #27-4574-01) containing 135 mM EDTA. The reaction product was captured on the affinity resin, and washed on a filtration plate (Millipore, MABVNOB50) with phosphate buffered saline for six times to remove free radionucleotide. The incorporation of ^33P into ATF2 was quantified on a microplate scintillation counter (Packard Topcount). Compound inhibition potency on JNK was measured by IC50 value generated from ten concentration inhibition curves fitted into the 3-parameter model: % inhibition=Maximum/(1+(IC50/[Inhibitor])^slope). Data were analyzed on Microsoft Excel for parameter estimation.

Human JNK1α1 = Human JNK1α1 (Homo sapiens (Human), UniProt P45983); assay: as above; type: biochemical; settings: Human JNK1α1, 2 nM enzyme, 1 μM ATF2, 6 μM ATP; read-out: JNK1 − IC50
Description: as §1

Chain of Human JNK2α2 (P45984 whole entry): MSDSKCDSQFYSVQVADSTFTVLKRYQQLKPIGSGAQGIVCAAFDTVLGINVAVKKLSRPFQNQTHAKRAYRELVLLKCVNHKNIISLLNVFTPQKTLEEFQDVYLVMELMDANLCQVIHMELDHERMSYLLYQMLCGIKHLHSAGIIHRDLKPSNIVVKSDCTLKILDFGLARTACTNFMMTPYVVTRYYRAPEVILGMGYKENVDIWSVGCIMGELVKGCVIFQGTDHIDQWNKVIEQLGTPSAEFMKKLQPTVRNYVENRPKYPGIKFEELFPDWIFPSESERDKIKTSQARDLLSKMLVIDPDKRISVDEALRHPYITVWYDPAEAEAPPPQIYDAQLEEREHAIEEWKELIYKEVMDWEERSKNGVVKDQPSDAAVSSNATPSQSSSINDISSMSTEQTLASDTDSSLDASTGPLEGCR
Chain of Human JNK1α1 (P45983 other isoform, or with tags, fused parts or gaps): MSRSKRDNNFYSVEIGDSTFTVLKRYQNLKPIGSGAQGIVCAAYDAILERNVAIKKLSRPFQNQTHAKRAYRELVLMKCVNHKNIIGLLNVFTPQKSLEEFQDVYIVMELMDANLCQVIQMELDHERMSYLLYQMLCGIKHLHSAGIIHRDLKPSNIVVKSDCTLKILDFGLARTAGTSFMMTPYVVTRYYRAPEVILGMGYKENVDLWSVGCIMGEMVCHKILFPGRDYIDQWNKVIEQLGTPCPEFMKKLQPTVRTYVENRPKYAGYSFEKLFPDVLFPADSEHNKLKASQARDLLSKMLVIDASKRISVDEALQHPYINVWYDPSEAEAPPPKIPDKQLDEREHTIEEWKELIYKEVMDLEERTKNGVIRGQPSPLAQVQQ

Compound	melting point	IC50 (Human JNK2α2)	IC50 (Human JNK1α1)
CN(C)S(=O)(=O)N[C@H]1CC[C@H](Nc2nccc(-c3cnc4c(C(C)(C)O)cccn34)n2)CC1 [Compound 4, N-(4-{4-[8-(1-Hydroxy-1-methyl-ethyl)-imidazo[1,2-a]pyridine-3-yl]-pyrimidin-2-ylamino}-cyclohexyl)-(N,N-dimethylamino)sulfonamide]	> 300 °C	0.124 µM	
CC(C)(O)c1cccn2c(-c3ccnc(N[C@H]4CC[C@H](C(=O)N5CCC(O)CC5)CC4)n3)cnc12 [Compound 2, (4-{4-[8-(1-hydroxy-1-methyl-ethyl)-imidazo[1,2-a]pyridin-3-yl]-pyrimidin-2-ylamino}-cyclohexyl)-(4-hydroxy-piperidin-1-yl)-methanone]	188 to 190 °C	0.369 µM	
CS(=O)(=O)N[C@H]1CC[C@H](Nc2nccc(-c3cnc4ccccn34)n2)CC1 [Compound 10, N-[4-(4-Imidazo[1,2-a]pyridin-3-yl-pyrimidin-2-ylamino)-cyclohexyl]-methanesulfonamide]	259 to 261 °C	0.214 µM	0.0567 µM
O[C@H]1CC[C@H](Nc2nccc(-c3cnc4ccccn34)n2)CC1 [Compound 11, 4-(4-Imidazo[1,2-a]pyridin-3-yl-pyrimidin-2-ylamino)-cyclohexanol]		0.254 µM	0.0866 µM
CC(C)(O)c1cccn2c(-c3ccnc(N[C@H]4CC[C@H](NS(C)(=O)=O)CC4)n3)cnc12 [Compound 3, N-(4-{4-[8-(1-Hydroxy-1-methyl-ethyl)-imidazo[1,2-a]pyridine-3-yl]-pyrimidin-2-ylamino}-cyclohexyl)-methanesulfonamide]	249 to 250 °C		
CC(C)(O)c1cccn2c(-c3ccnc(N[C@H]4CC[C@H](CS(C)(=O)=O)CC4)n3)cnc12 [Compound 1, 2-{3-[2-(4-methanesulfonylmethyl-cyclohexylamino)-pyrimidin-4-yl]-imidazo[1,2-a]pyridin-8-yl}-propan-2-ol]	223 to 224 °C	0.295 µM	
CS(=O)(=O)N[C@H]1CC[C@H](Nc2nccc(-c3cnc4c(OCc5ccccc5)cccn34)n2)CC1 [Compound 7, N-{4-[4-(8-benzyloxy-imidazo[1,2-a]pyridin-3-yl)-pyrimidin-2-ylamino]-cyclohexyl}-methanesulfonamide]	236.9 to 241 °C	0.0527 µM	0.0237 µM
CCOC(=O)[C@H]1CC[C@H](Nc2nccc(-c3cnc4c(OCc5ccccc5)cccn34)n2)CC1 [Compound 8, 4-[4-(8-benzyloxy-imidazo[1,2-a]pyridine-3-yl)-pyrimidin-2-ylamino]-cyclohexanecarboxylic acid ethyl ester]	147 to 149 °C	0.104 µM	0.0489 µM
O[C@H]1CC[C@H](Nc2nccc(-c3cnc4c(OCc5ccccc5)cccn34)n2)CC1 [Compound 9, 4-[4-(8-Benzyloxy-imidazo[1,2-a]pyridin-3-yl)-pyrimidin-2-yl-amino]-cyclohexanol]	236 to 238 °C	0.0494 µM	0.0269 µM
CS(=O)(=O)CCCOc1cccn2c(-c3ccnc(N[C@H]4CC[C@H](C(=O)N5CCC(O)CC5)CC4)n3)cnc12 [Compound 5, (4-Hydroxy-piperidin-1-yl)-(4-{4-[8-(3-methanesulfonyl-propoxy)-imidazo[1,2-a]pyridin-3-yl]-pyrimidin-2-ylamino}-cyclohexyl)-methanone]	258 to 259 °C	0.0503 µM	0.0216 µM
O=C([C@H]1CC[C@H](Nc2nccc(-c3cnc4c(OCc5ccccc5)cccn34)n2)CC1)N1CCC(O)CC1 [Compound 6, {4-[4-(8-Benzyloxy-imidazo[1,2-a]pyridin-3-yl)-pyrimidin-2-ylamino]-cyclohexyl}-(4-hydroxy-piperidin-1-yl)-methanone]	210 to 212 °C	0.0559 µM	0.0333 µM
